What was measured:
Type in all cases: biochemical
JAK1 = JAK1 (Homo sapiens, UniProt P23458); assay: JAK kinase activity, homogeneous time-resolved fluorescence (JAK1 reaction system); settings: ATP 2 μM, JAK1 protein 0.2 ng/μL; read-out: JAK 1 activity
Experimental: (§1) The activity measurement method of JAK kinase was to use homogeneous time-resolved fluorescence technique. The reaction was performed in 384 shallow well plates with a total reaction volume of 10 μL. The mixture of kinase protein, compound, ATP and substrate was carried out in a reaction buffer of 50 mM Hepes (pH7.0), NaN3 0.02%, BSA 0.01%, 0.1 mM Orthocanadate, 5 mM MgCl2, and 1 mM DTT. After reacting for 1 hour, an antibody capable of recognizing substrate phosphorylation, dye XL-615 and detection buffer (Cisbio) containing EDTA were added to the system. The reaction signal of kinase was detected by PE company's porous plate detector. The parameter settings were excitation light at 320 nm, emission light at 615 nm and 665 nm. The activity of JAK is indirectly reflected by the signal ratio of 665 nm and 615 nm. In the reaction, the background well without enzyme and the total enzyme activity well without compound were set.
(§2) The IC50 value of the compound inhibiting protein was obtained by the formula: Y=100/(1+10^((Log IC50−X)*HillSlope)). In JAK1 reaction system, the concentration of ATP was 2 μM, and the concentration of JAK1 protein was 0.2 ng/μL.

JAK2 = JAK2 (Homo sapiens, UniProt O60674); assay: JAK kinase activity, homogeneous time-resolved fluorescence (JAK2 reaction system); settings: ATP 2 μM, JAK2 protein 0.01 ng/μL
JAK2, sequence (O60674 whole entry): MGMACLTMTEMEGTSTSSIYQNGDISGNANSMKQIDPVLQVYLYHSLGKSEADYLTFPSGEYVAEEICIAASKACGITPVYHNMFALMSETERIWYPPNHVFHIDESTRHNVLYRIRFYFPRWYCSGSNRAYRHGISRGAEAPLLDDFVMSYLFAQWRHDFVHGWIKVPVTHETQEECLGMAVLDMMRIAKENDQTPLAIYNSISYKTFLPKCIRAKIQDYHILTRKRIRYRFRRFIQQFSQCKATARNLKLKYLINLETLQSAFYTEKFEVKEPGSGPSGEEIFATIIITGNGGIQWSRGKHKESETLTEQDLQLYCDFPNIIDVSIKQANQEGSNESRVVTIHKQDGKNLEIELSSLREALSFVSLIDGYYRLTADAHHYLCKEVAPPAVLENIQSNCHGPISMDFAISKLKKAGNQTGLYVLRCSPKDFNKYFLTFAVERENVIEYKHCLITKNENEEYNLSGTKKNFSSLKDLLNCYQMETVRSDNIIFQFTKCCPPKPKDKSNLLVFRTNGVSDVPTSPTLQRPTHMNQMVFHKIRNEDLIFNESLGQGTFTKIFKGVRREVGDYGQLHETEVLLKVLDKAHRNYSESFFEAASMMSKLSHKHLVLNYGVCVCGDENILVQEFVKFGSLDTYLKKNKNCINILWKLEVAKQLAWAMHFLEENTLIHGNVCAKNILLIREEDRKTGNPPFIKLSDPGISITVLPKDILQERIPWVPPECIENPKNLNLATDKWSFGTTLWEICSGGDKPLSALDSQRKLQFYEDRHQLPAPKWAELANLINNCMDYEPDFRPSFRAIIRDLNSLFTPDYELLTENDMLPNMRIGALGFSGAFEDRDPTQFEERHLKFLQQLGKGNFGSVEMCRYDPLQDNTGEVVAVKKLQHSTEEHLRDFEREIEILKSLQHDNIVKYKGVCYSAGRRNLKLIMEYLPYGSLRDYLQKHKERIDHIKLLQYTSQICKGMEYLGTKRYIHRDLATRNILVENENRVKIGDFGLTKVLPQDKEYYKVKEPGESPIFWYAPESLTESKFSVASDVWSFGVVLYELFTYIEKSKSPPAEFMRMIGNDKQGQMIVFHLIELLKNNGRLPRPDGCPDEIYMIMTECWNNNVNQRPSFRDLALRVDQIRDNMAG
Experimental: as §1, §2
In JAK2 reaction system, the concentration of ATP was 2 μM, and the concentration of JAK2 protein was 0.01 ng/μL.

JAK3 = target: T1, JAK3 (Homo sapiens, UniProt P52333); assay: JAK kinase activity, homogeneous time-resolved fluorescence (JAK3 reaction system); settings: ATP 2 μM, JAK3 protein 0.04 ng/μL; read-out: JAK 3 activity
T1 sequence (P52333 1-1124): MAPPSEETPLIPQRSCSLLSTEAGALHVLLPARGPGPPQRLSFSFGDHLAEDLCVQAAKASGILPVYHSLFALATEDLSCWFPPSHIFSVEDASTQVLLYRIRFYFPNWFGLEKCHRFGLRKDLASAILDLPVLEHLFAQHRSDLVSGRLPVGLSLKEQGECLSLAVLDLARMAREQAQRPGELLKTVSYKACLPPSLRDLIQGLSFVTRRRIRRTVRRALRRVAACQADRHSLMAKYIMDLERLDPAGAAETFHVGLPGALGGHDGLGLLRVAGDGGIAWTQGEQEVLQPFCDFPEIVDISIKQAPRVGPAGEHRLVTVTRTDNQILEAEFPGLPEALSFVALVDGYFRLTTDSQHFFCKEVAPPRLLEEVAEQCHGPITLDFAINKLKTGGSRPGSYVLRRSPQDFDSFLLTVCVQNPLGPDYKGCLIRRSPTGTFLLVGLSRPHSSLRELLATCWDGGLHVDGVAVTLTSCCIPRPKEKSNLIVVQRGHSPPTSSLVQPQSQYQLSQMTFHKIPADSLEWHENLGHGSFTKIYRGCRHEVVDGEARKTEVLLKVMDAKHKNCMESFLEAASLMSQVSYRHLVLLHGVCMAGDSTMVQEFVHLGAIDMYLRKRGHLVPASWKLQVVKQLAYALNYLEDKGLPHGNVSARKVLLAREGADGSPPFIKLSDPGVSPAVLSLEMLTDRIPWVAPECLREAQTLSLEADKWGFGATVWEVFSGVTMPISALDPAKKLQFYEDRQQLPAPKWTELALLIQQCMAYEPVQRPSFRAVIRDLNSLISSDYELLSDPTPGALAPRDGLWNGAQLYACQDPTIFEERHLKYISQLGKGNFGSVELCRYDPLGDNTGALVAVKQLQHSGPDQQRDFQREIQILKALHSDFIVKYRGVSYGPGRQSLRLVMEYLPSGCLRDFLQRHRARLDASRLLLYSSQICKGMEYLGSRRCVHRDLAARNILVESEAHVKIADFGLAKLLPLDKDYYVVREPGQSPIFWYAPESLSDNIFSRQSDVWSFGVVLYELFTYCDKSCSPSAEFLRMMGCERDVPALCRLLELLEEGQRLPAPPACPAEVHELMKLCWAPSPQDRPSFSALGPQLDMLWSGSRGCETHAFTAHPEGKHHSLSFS
Experimental: as §1, with “The reaction was performed in 384 shallow well plates with a total reaction volume of 10 μL.” left out, “After reacting for 1 hour, an antibody capable of recognizing substrate phosphorylation, dye XL-615 and detection buffer (Cisbio) containing EDTA were added to the system.” left out, “set. […]” for “set.”
In JAK3 reaction system, the concentration of ATP was 2 μM, and the concentration of JAK3 protein was 0.04 ng/μL.

TYK2 = TYK2 (Homo sapiens, UniProt P29597); assay: JAK kinase activity, homogeneous time-resolved fluorescence (TYK2 reaction system); settings: ATP 2 μM, TYK2 protein 0.2 ng/μL; read-out: TYK 2 activity
TYK2, sequence (P29597 whole entry): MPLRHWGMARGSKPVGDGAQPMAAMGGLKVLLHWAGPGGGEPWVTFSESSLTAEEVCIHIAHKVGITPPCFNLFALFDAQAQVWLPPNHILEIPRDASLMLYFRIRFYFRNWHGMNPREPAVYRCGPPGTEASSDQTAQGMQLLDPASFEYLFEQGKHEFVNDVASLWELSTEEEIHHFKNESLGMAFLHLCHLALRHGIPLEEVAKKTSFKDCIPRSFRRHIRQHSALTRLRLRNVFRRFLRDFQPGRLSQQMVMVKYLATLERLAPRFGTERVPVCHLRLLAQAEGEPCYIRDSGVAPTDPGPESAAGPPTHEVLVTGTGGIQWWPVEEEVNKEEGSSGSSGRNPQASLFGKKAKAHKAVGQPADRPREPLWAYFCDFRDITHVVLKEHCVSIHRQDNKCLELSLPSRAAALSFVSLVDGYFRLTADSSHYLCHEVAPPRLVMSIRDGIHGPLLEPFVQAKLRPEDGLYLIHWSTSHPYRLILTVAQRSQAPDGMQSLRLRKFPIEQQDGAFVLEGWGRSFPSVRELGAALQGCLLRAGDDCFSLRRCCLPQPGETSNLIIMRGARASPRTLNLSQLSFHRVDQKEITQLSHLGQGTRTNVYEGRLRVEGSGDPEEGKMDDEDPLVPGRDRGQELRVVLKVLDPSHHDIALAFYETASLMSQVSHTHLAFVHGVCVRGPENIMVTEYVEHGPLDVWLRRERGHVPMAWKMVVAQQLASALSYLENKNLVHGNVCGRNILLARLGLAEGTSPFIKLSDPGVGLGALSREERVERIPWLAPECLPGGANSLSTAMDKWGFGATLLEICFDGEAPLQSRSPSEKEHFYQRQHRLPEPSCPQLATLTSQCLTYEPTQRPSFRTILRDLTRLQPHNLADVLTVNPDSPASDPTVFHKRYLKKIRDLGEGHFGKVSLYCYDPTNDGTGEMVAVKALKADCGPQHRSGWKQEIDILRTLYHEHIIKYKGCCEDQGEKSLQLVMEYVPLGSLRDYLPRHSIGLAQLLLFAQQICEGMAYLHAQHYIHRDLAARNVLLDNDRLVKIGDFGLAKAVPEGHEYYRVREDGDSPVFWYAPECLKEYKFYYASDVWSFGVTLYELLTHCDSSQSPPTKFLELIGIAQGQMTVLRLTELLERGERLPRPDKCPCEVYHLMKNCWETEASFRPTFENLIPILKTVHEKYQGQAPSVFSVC
Experimental: as §1, §2
In TYK2 reaction system, the concentration of ATP was 2 μM, and the concentration of TYK2 protein was 0.2 ng/μL.

JAK1, sequence (P23458 whole entry): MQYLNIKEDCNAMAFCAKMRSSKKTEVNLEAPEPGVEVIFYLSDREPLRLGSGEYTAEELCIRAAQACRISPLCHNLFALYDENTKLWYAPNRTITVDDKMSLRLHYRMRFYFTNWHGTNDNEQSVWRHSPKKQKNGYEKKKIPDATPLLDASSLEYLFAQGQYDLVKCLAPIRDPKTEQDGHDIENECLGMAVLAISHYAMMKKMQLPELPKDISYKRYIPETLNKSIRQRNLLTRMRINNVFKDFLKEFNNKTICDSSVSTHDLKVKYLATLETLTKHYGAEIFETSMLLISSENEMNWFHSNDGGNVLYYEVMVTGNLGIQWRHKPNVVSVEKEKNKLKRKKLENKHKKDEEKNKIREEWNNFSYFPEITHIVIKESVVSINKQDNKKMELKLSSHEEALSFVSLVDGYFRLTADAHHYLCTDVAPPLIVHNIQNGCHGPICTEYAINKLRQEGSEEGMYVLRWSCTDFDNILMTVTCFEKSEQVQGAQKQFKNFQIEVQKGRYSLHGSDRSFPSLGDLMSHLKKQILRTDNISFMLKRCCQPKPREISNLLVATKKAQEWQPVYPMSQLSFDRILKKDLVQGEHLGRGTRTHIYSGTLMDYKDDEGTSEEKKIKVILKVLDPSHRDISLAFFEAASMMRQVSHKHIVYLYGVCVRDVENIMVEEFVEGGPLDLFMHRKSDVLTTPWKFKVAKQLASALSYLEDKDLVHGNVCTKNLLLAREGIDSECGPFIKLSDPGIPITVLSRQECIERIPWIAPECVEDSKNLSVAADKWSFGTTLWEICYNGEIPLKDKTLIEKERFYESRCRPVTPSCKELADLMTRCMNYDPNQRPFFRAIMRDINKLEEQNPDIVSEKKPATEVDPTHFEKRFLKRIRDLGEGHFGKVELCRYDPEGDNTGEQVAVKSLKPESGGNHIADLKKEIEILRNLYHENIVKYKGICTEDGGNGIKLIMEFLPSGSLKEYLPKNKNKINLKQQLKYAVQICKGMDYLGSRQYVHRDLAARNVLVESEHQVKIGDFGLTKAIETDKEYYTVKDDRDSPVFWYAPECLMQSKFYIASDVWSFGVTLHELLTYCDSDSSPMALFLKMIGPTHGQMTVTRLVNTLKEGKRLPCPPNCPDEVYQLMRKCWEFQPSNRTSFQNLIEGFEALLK

| IC50 (JAK1) | IC50 (JAK2) | IC50 (JAK3) | IC50 (TYK2) | SMILES |
| --- | --- | --- | --- | --- |
| > 10000 nM | 1000 to 10000 nM | 101 to 1000 nM | > 10000 nM | O=C1NCCCCOCc2cc(ccc2OCC2CC(F)(F)C2)Nc2nccc(n2)-c2ccc1cc2[N+](=O)[O-] [Example 126, 4^4-((3,3-Difluorocyclobutyl)methoxy)-1^2-nitro-6-oxa-3,11-diaza-2(4,2)-pyrimidina-1(1,4),4(1,3)-di-benzenacyclododecaphan-12-one] |
| 1000 to 10000 nM | 101 to 1000 nM | 101 to 1000 nM | > 10000 nM | O=C1NCCCCOCc2cccc(c2)Nc2ncc(Cl)c(n2)-c2ccc1cc2Cl [Example 18, 1^2,2^5-dichloro-6-oxa-3,11-diaza-2(4,2)-pyrimidina-1(1,4),4(1,3)-dibenz-enacyclododecaphan-12-one] |
| 1000 to 10000 nM | 1000 to 10000 nM | 101 to 1000 nM | > 10000 nM | O=C1NCCCCOCc2cc(ccc2OC2CCOCC2)Nc2nccc(n2)-c2ccc1cc2[N+](=O)[O-] [Example 61, 1^2-nitro-4^4-(2H-tetrahydropyran-4-oxo)-6-oxa-3,11-diaza-2(4,2)-pyrimi-dina-1(1,4),4(1,3)-dibenzenacyclo-dodecaphan-12-one] |
| 101 to 1000 nM | 101 to 1000 nM | 11 to 100 nM | 1000 to 10000 nM | O=C1Nc2ccc(cc2)OCc2cc(ccc2F)Nc2nccc(n2)-c2ccc1cc2O [Example 216, 4^4-fluoro-1^2-hydroxy-6-oxa-3,8-dia-za-2(4,2)-pyrimidina-1,7(1,4),4(1,3)-tribenzenacyclononaphane-9-one] |
| 1000 to 10000 nM | 101 to 1000 nM | < 10 nM | > 10000 nM | Nc1cc2ccc1-c1ccnc(n1)Nc1ccc(OCc3ccccc3F)c(c1)COCCCCNC2=O [Example 153, 1^2-amino-4^4-((2-fluorobenzyl)oxy)-6-oxa-3,11-diaza-2(4,2)-pyrimidi-na-1(1,4),4(1,3)-dibenzenacyclo-dodecaphan-12-one] |
| 1000 to 10000 nM | 1000 to 10000 nM | 1000 to 10000 nM | > 10000 nM | COc1cccc(F)c1COc1ccc2cc1COCCCCNC(=O)c1ccc(c([N+](=O)[O-])c1)-c1ccnc(n1)N2 [Example 171, 4^4-((2-fluoro-6-methoxybenzyl)oxy)-1^2-nitro-6-oxa-3,11-diaza-2(4,2)-pyrimidina-1(1,4),4(1,3)-di-benzenacyclododecaphan-12-one] |

More lines, now with the values behind:

| SMILES | IC50 (JAK1) | IC50 (JAK2) | IC50 (JAK3) | IC50 (TYK2) |
| --- | --- | --- | --- | --- |
| O=C1NCCCCCCOCc2cc(ccc2N2CCOCC2)Nc2nccc(n2)-c2ccc1cc2[N+](=O)[O-] [Example 56, 1^2-nitro-4^4-morpholin-6-oxa-3,13-di-aza-2(4,2)-pyrimidina-1(1,4),4(1,3)-dibenzenacyclotetradecaphan-14-one] | > 10000 nM | 1000 to 10000 nM | 1000 to 10000 nM | > 10000 nM |
| CC1CCOCc2cc(ccc2OCC2CCOC2)Nc2nccc(n2)-c2ccc(cc2N)C(=O)NC1 (centres unmarked) [Example 167, 1-amino-9-methyl-4^4-((tetahydro-furan-3-yl)methoxy)-6-oxa-3,11-diaza-2(4,2)-pyrimidina-1(1,4),4(1,3)-dibenzenacyclododecaphan-12-one] | 101 to 1000 nM | 101 to 1000 nM | < 10 nM | 101 to 1000 nM |
| O=C1NCCCCOCc2cc(ccc2OCc2ccccc2F)Nc2nccc(n2)-c2ccc1cc2[N+](=O)[O-] [Example 152, 4^4-((2-fluorobenzyl)oxy)-1^2-nitro-6-oxa-3,11-diaza-2(4,2)-pyrimidina-1(1,4),4(1,3)-dibenzenacyclodo-decaphan-12-one] | 1000 to 10000 nM | 1000 to 10000 nM | 101 to 1000 nM | > 10000 nM |
| Nc1cc2ccc1-c1ccnc(n1)Nc1ccc(OC3CC3)c(c1)COCCCCNC2=O [Example 74, 1^2-amino-4^4-cyclopropoxy-6-oxa-3,11-diaza-2(4,2)-pyrimidina-1(1,4),4(1,3)-dibenzenacyclododecaphan-12-one] | 1000 to 10000 nM | 101 to 1000 nM | < 10 nM | 1000 to 10000 nM |
| Nc1cc2ccc1-c1ccnc(n1)Nc1ccc(OCC3CCC3)c(c1)COCCCCNC2=O [Example 100, 1^2-amino-4^4-(cyclobutylmethoxy)-6-oxa-3,11-diaza-2(4,2)-pyrimidina-1(1,4),4(1,3)-dibenzenacyclododeca-phan-12-one] | 101 to 1000 nM | 101 to 1000 nM | < 10 nM | 1000 to 10000 nM |
| Nc1cc2ccc1-c1ccnc(n1)Nc1ccc(OC3CCCCC3)c(c1)COCCCCNC2=O [Example 47, 1^2-amino-4^4-cyclohexyloxy-6-oxa-3,11-diaza-2(4,2)-pyrimidina-1(1,4),4(1,3)-dibenzenacyclododecaphan-12-one] | 1000 to 10000 nM | 1000 to 10000 nM | 11 to 100 nM | 1000 to 10000 nM |
| O=C1NCCCCOCc2cc(cc(N3CCOCC3)c2)Nc2nccc(n2)-c2ccc1cc2F [Example 27, 1^2-fluoro-4^5-morpholin-6-oxa-3,11-diaza-2(4,2)-pyrimidina-1(1,4),4(1,3)-dibenzenacyclododecaphan-12-one] | 101 to 1000 nM | 11 to 100 nM | 11 to 100 nM | 101 to 1000 nM |
| O=C1NC2CCC(CC2)COCc2cc(ccc2N2CCOCC2)Nc2nccc(n2)-c2ccc1cc2 [Example 80, 4^4-morpholine-6-oxa-3,9-diaza-2(4,2)-pyrimidina-1(1,4),4(1,3)-dibenze-na-8(1,4)-cyclododecaphan-10-one] | 1000 to 10000 nM | 1000 to 10000 nM | 1000 to 10000 nM | > 10000 nM |
| Nc1cc2ccc1-c1ccnc(n1)Nc1ccc(OC3CCCC3)c(c1)COCCCCNC2=O [Example 88, 1^2-amino-4^4-cyclopentoxy-6-oxa-3,11-diaza-2(4,2)-pyrimidina-1(1,4),4(1,3)-dibenzenacyclododecaphan-12-one] | 101 to 1000 nM | 11 to 100 nM | < 10 nM | 1000 to 10000 nM |
| Cc1cc2ccc1-c1ccnc(n1)Nc1ccc(N3CCCCC3)c(c1)COCCCCNC2=O [Example 42, 1^2-methyl-4^4-(piperidin-1-)-6-oxa-3,11-diaza-2(4,2)-pyrimidina-1(1,4),4(1,3)-dibenzenacyclododecaphan-12-one] | 1000 to 10000 nM | 101 to 1000 nM | 11 to 100 nM | 101 to 1000 nM |
| O=C1NCCCCOCc2cc(ccc2N2CCOCC2)Nc2nccc(n2)-c2ccc1cc2OC(F)(F)F [Example 22, 4^4-morpholin-1^2-trifluoromethoxy-6-oxa-3,11-diaza-2(4,2)-pyrimidina-1(1,4),4(1,3)-dibenzenacyclododeca-phan-12-one] | 1000 to 10000 nM | 101 to 1000 nM | 101 to 1000 nM | 1000 to 10000 nM |
